Assay results taken from US10508285B2, “Method for screening of genes conferring increased tolerance to herbicides” (priority 2014, dated 2019).

Columns and labels:
[1] = test system: Cytochrome P450 wildtype (Zea mays); test: Herbicide tolerance of transiently transformed tobacco leaf discs, PSII yield (PAM imaging); conditions: IC50 of PSII yield inhibition, Nicotiana benthamiana leaf discs expressing Zea mays Cytochrome P450 wildtype versus empty vector-transformed leaf discs
[2] = target: T1, Transketolase wildtype (Spinacia oleracea) (Spinacia oleracea, UniProt O20250); test: as above; format: cell-based; conditions: IC50 of PSII yield inhibition, Nicotiana benthamiana leaf discs expressing Spinacia oleracea Transketolase wildtype versus empty vector-transformed leaf discs
T1 construct: expressed in transfected cells; host or cells: Nicotiana benthamiana leaves, Agrobacterium tumefaciens GV2260 infiltration
T1 sequence (O20250 67-741): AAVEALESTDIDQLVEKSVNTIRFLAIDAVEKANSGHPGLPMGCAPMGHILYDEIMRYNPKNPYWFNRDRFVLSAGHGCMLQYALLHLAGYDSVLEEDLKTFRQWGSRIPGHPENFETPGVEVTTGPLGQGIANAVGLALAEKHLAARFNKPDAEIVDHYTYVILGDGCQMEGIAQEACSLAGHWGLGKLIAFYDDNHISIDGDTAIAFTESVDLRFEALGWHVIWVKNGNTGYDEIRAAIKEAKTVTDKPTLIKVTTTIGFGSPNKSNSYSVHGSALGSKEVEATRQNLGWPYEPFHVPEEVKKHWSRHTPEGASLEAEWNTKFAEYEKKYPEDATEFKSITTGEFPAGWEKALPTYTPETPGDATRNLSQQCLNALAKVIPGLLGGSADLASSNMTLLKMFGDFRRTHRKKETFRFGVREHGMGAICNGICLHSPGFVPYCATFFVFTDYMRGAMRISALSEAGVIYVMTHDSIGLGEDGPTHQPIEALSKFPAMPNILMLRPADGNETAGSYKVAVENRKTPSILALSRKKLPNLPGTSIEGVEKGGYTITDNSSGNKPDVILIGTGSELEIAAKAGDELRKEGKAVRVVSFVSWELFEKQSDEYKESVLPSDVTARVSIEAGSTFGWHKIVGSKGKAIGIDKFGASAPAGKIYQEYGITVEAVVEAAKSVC

[3] = test system: Protoporphyrinogen IX Oxidase (PPO) wildtype; test: as above; format: cell-based; conditions: IC50 of PSII yield inhibition, Nicotiana benthamiana leaf discs expressing Alopecurus myosuroides PPO wildtype versus empty vector-transformed leaf discs
[4] = test system: Protoporphyrinogen IX Oxidase (PPO) L397Q_F420M; format: cell-based, Amaranthus tuberculatus

CC(C)N1C(=O)c2ccccc2NS1(=O)=O [Bentazon]
Tolerance factor [1]: 13.4

C/C=C1/CC2=C(C(=O)OC2=O)[C@H](CCC)[C@H](O)C(=O)C[C@@H]1O [Cornexistin]
Tolerance factor [2]: 3.6

CC(C)N(C)S(=O)(=O)NC(=O)c1cc(-n2c(=O)cc(C(F)(F)F)n(C)c2=O)c(F)cc1Cl [Saflufenacil]
Tolerance factor [3]: 177
Tolerance factor [4]: 150
